Measured values from the NIST ThermoML archive (doi:10.1021/je300873x).
± gives the expanded uncertainty stated by the source.

Test: mn = molality of the nth substance listed, in mol/kg
Conditions: for surface tension liquid-gas: Pendant drop shape; for electrical conductivity: Liquid, Digital conductivity meter

## CCCCCCCCCCCCCC[N+](C)(C)CCO.[Br-] [N-tetradecyl-hydroxyethyl-dimethyl ammonium bromide] + O
298.15 K, m1 = 0.0003
  surface tension liquid-gas: 66.02 ± 0.59 mN/m
298.15 K, m1 = 0.0006
  surface tension liquid-gas: 60.97 ± 0.55 mN/m
298.15 K, m1 = 0.00081
  surface tension liquid-gas: 58.35 ± 0.53 mN/m
298.15 K, m1 = 0.00101
  surface tension liquid-gas: 55.52 ± 0.51 mN/m
298.15 K, m1 = 0.00151
  surface tension liquid-gas: 49.52 ± 0.46 mN/m
298.15 K, m1 = 0.00201
  surface tension liquid-gas: 45.03 ± 0.43 mN/m
298.15 K, m1 = 0.00252
  surface tension liquid-gas: 41.15 ± 0.4 mN/m
298.15 K, m1 = 0.00302
  surface tension liquid-gas: 38.35 ± 0.38 mN/m
298.15 K, m1 = 0.00403
  surface tension liquid-gas: 37.57 ± 0.37 mN/m
298.15 K, m1 = 0.00503
  surface tension liquid-gas: 37.62 ± 0.37 mN/m
298.15 K, m1 = 0.00604
  surface tension liquid-gas: 37.61 ± 0.37 mN/m
298.15 K, m1 = 0.00806
  surface tension liquid-gas: 37.61 ± 0.37 mN/m
298.15 K, m1 = 0.00258
  electrical conductivity: 0.0207 ± 0.0001 S/m
298.15 K, m1 = 0.00268
  electrical conductivity: 0.0215 ± 0.0001 S/m
298.15 K, m1 = 0.00279
  electrical conductivity: 0.0223 ± 0.0001 S/m
298.15 K, m1 = 0.00291
  electrical conductivity: 0.0232 ± 0.0001 S/m
298.15 K, m1 = 0.00303
  electrical conductivity: 0.0241 ± 0.0001 S/m
298.15 K, m1 = 0.00317
  electrical conductivity: 0.0251 ± 0.0001 S/m
298.15 K, m1 = 0.00332
  electrical conductivity: 0.0261 ± 0.0001 S/m
298.15 K, m1 = 0.00349
  electrical conductivity: 0.027 ± 0.0001 S/m
298.15 K, m1 = 0.00367
  electrical conductivity: 0.0275 ± 0.0001 S/m
298.15 K, m1 = 0.00388
  electrical conductivity: 0.028 ± 0.0001 S/m
298.15 K, m1 = 0.00411
  electrical conductivity: 0.0285 ± 0.0001 S/m
298.15 K, m1 = 0.00436
  electrical conductivity: 0.029 ± 0.0001 S/m
298.15 K, m1 = 0.00465
  electrical conductivity: 0.0296 ± 0.0001 S/m
298.15 K, m1 = 0.00499
  electrical conductivity: 0.0302 ± 0.0001 S/m
298.15 K, m1 = 0.00537
  electrical conductivity: 0.0309 ± 0.0001 S/m
298.15 K, m1 = 0.00582
  electrical conductivity: 0.0318 ± 0.0001 S/m
298.15 K, m1 = 0.00635
  electrical conductivity: 0.0328 ± 0.0001 S/m
298.15 K, m1 = 0.00698
  electrical conductivity: 0.034 ± 0.0001 S/m
303.15 K, m1 = 0.00258
  electrical conductivity: 0.0231 ± 0.0001 S/m
303.15 K, m1 = 0.00268
  electrical conductivity: 0.024 ± 0.0001 S/m
303.15 K, m1 = 0.00279
  electrical conductivity: 0.0249 ± 0.0001 S/m
303.15 K, m1 = 0.0029
  electrical conductivity: 0.026 ± 0.0001 S/m
303.15 K, m1 = 0.00303
  electrical conductivity: 0.0269 ± 0.0001 S/m
303.15 K, m1 = 0.00317
  electrical conductivity: 0.028 ± 0.0001 S/m
303.15 K, m1 = 0.00332
  electrical conductivity: 0.0292 ± 0.0001 S/m
303.15 K, m1 = 0.00348
  electrical conductivity: 0.0303 ± 0.0001 S/m
303.15 K, m1 = 0.00367
  electrical conductivity: 0.031 ± 0.0001 S/m
303.15 K, m1 = 0.00387
  electrical conductivity: 0.0316 ± 0.0001 S/m
303.15 K, m1 = 0.0041
  electrical conductivity: 0.0322 ± 0.0001 S/m
303.15 K, m1 = 0.00436
  electrical conductivity: 0.0328 ± 0.0001 S/m
303.15 K, m1 = 0.00465
  electrical conductivity: 0.0335 ± 0.0001 S/m
303.15 K, m1 = 0.00498
  electrical conductivity: 0.0342 ± 0.0001 S/m
303.15 K, m1 = 0.00536
  electrical conductivity: 0.035 ± 0.0001 S/m
303.15 K, m1 = 0.00581
  electrical conductivity: 0.036 ± 0.0001 S/m
303.15 K, m1 = 0.00634
  electrical conductivity: 0.0372 ± 0.0001 S/m
303.15 K, m1 = 0.00697
  electrical conductivity: 0.0385 ± 0.0001 S/m
308.15 K, m1 = 0.00258
  electrical conductivity: 0.0254 ± 0.0001 S/m
308.15 K, m1 = 0.00268
  electrical conductivity: 0.0263 ± 0.0001 S/m
308.15 K, m1 = 0.00278
  electrical conductivity: 0.0274 ± 0.0001 S/m
308.15 K, m1 = 0.0029
  electrical conductivity: 0.0283 ± 0.0001 S/m
308.15 K, m1 = 0.00303
  electrical conductivity: 0.0295 ± 0.0001 S/m
308.15 K, m1 = 0.00316
  electrical conductivity: 0.0308 ± 0.0001 S/m
308.15 K, m1 = 0.00331
  electrical conductivity: 0.0321 ± 0.0001 S/m
308.15 K, m1 = 0.00348
  electrical conductivity: 0.0334 ± 0.0001 S/m
308.15 K, m1 = 0.00366
  electrical conductivity: 0.0346 ± 0.0001 S/m
308.15 K, m1 = 0.00387
  electrical conductivity: 0.0352 ± 0.0001 S/m
308.15 K, m1 = 0.00409
  electrical conductivity: 0.0359 ± 0.0001 S/m
308.15 K, m1 = 0.00435
  electrical conductivity: 0.0366 ± 0.0001 S/m
308.15 K, m1 = 0.00464
  electrical conductivity: 0.0374 ± 0.0001 S/m
308.15 K, m1 = 0.00497
  electrical conductivity: 0.0383 ± 0.0001 S/m
308.15 K, m1 = 0.00535
  electrical conductivity: 0.0393 ± 0.0001 S/m
308.15 K, m1 = 0.0058
  electrical conductivity: 0.0404 ± 0.0001 S/m
308.15 K, m1 = 0.00633
  electrical conductivity: 0.0418 ± 0.0001 S/m
308.15 K, m1 = 0.00696
  electrical conductivity: 0.0435 ± 0.0001 S/m
313.15 K, m1 = 0.00257
  electrical conductivity: 0.0278 ± 0.0001 S/m
313.15 K, m1 = 0.00267
  electrical conductivity: 0.0287 ± 0.0001 S/m
313.15 K, m1 = 0.00278
  electrical conductivity: 0.0298 ± 0.0001 S/m
313.15 K, m1 = 0.00289
  electrical conductivity: 0.0311 ± 0.0001 S/m
313.15 K, m1 = 0.00302
  electrical conductivity: 0.0325 ± 0.0001 S/m
313.15 K, m1 = 0.00316
  electrical conductivity: 0.0339 ± 0.0001 S/m
313.15 K, m1 = 0.00331
  electrical conductivity: 0.0354 ± 0.0001 S/m
313.15 K, m1 = 0.00347
  electrical conductivity: 0.037 ± 0.0001 S/m
313.15 K, m1 = 0.00366
  electrical conductivity: 0.0385 ± 0.0001 S/m
313.15 K, m1 = 0.00386
  electrical conductivity: 0.0395 ± 0.0001 S/m
313.15 K, m1 = 0.00409
  electrical conductivity: 0.0405 ± 0.0001 S/m
313.15 K, m1 = 0.00434
  electrical conductivity: 0.0414 ± 0.0001 S/m
313.15 K, m1 = 0.00463
  electrical conductivity: 0.0421 ± 0.0001 S/m
313.15 K, m1 = 0.00496
  electrical conductivity: 0.0431 ± 0.0001 S/m
313.15 K, m1 = 0.00534
  electrical conductivity: 0.0441 ± 0.0001 S/m
313.15 K, m1 = 0.00579
  electrical conductivity: 0.0455 ± 0.0001 S/m
313.15 K, m1 = 0.00631
  electrical conductivity: 0.0472 ± 0.0001 S/m
313.15 K, m1 = 0.00695
  electrical conductivity: 0.0491 ± 0.0001 S/m
318.15 K, m1 = 0.00257
  electrical conductivity: 0.0307 ± 0.0001 S/m
318.15 K, m1 = 0.00267
  electrical conductivity: 0.0317 ± 0.0001 S/m
318.15 K, m1 = 0.00277
  electrical conductivity: 0.0329 ± 0.0001 S/m
318.15 K, m1 = 0.00289
  electrical conductivity: 0.0343 ± 0.0001 S/m
318.15 K, m1 = 0.00301
  electrical conductivity: 0.0356 ± 0.0001 S/m
318.15 K, m1 = 0.00315
  electrical conductivity: 0.037 ± 0.0001 S/m
318.15 K, m1 = 0.0033
  electrical conductivity: 0.0385 ± 0.0001 S/m
318.15 K, m1 = 0.00347
  electrical conductivity: 0.0407 ± 0.0001 S/m
318.15 K, m1 = 0.00365
  electrical conductivity: 0.0426 ± 0.0001 S/m
318.15 K, m1 = 0.00385
  electrical conductivity: 0.044 ± 0.0001 S/m
318.15 K, m1 = 0.00408
  electrical conductivity: 0.0454 ± 0.0001 S/m
318.15 K, m1 = 0.00433
  electrical conductivity: 0.0465 ± 0.0001 S/m
318.15 K, m1 = 0.00462
  electrical conductivity: 0.0475 ± 0.0001 S/m
318.15 K, m1 = 0.00495
  electrical conductivity: 0.0488 ± 0.0001 S/m
318.15 K, m1 = 0.00533
  electrical conductivity: 0.0499 ± 0.0001 S/m
318.15 K, m1 = 0.00578
  electrical conductivity: 0.0514 ± 0.0001 S/m
318.15 K, m1 = 0.0063
  electrical conductivity: 0.0531 ± 0.0001 S/m
318.15 K, m1 = 0.00693
  electrical conductivity: 0.0552 ± 0.0001 S/m
323.15 K, m1 = 0.00256
  electrical conductivity: 0.0332 ± 0.0001 S/m
323.15 K, m1 = 0.00266
  electrical conductivity: 0.0345 ± 0.0001 S/m
323.15 K, m1 = 0.00277
  electrical conductivity: 0.0357 ± 0.0001 S/m
323.15 K, m1 = 0.00288
  electrical conductivity: 0.0372 ± 0.0001 S/m
323.15 K, m1 = 0.00301
  electrical conductivity: 0.0389 ± 0.0001 S/m
323.15 K, m1 = 0.00314
  electrical conductivity: 0.0404 ± 0.0001 S/m
323.15 K, m1 = 0.00329
  electrical conductivity: 0.0423 ± 0.0001 S/m
323.15 K, m1 = 0.00346
  electrical conductivity: 0.0442 ± 0.0001 S/m
323.15 K, m1 = 0.00364
  electrical conductivity: 0.0465 ± 0.0001 S/m
323.15 K, m1 = 0.00384
  electrical conductivity: 0.0487 ± 0.0001 S/m
323.15 K, m1 = 0.00407
  electrical conductivity: 0.0506 ± 0.0001 S/m
323.15 K, m1 = 0.00432
  electrical conductivity: 0.0522 ± 0.0001 S/m
323.15 K, m1 = 0.00461
  electrical conductivity: 0.0535 ± 0.0001 S/m
323.15 K, m1 = 0.00494
  electrical conductivity: 0.0547 ± 0.0001 S/m
323.15 K, m1 = 0.00532
  electrical conductivity: 0.0563 ± 0.0001 S/m
323.15 K, m1 = 0.00576
  electrical conductivity: 0.0581 ± 0.0001 S/m
323.15 K, m1 = 0.00629
  electrical conductivity: 0.0598 ± 0.0001 S/m
323.15 K, m1 = 0.00692
  electrical conductivity: 0.062 ± 0.0001 S/m
